Like-named read-outs stand apart in the source and are kept apart here.
What was measured:
Spodoptera frugiperda = Spodoptera frugiperda - spray application; type: in vivo; details: Spodoptera frugiperda; for mortality at 4 g/ha: 4 g ai/ha; for mortality at 20 g/ha: 20 g ai/ha; for mortality at 100 g/ha: 100 g ai/ha
Method: (§1) To produce a suitable preparation of active compound, 1 part by weight of active compound is mixed with the stated amount of solvent and emulsifier, and the concentrate is diluted with emulsifier-containing water to the desired concentration. To produce a suitable preparation of a biological suspension the cells, viruses or spores are diluted with emulsifier-containing water to the desired concentration.
Cabbage (Brassica oleracea) leaf-discs are sprayed with a preparation of the active ingredient at the desired concentration. Once dry, the leaf discs are infested with larvae of the fall army worm (Spodoptera frugiperda).
After the specified period of time, mortality in % is determined. 100% means that all the caterpillars have been killed; 0% means that none of the caterpillars have been killed. The mortality values thus determined are recalculated using the Colby-formula.

[1] = system: Tetranychus urticae (OP-resistant); test: Tetranychus urticae - test; OP-resistant (TETRUR), bean plants sprayed; type: in vivo
Method: as §1, with “the desired concentration Ammonium salt and/or penetration enhancer in a dosage of 1000 ppm are added to the desired concentration if necessary. To produce” for “the desired concentration. To produce”, “suspension the cells or spores” for “suspension the cells, viruses or spores”
Bean plants (Phaseolus vulgaris) which are heavily infested with all stages of the two-spotted spider mite (Tetranychus urticae) are treated by being sprayed with the preparation of the active compound of the desired concentration.
After the specified period of time, mortality in % is determined 100% means that all the spider mites have been killed; 0% means that none of the spider mites have been killed.

[2] = system: Phaedon cochleariae larvae; test: whole plant or invertebrate
soybean (Glycine max) [3] = test: Seed treatment - germination test soybean; type: in vivo; details: 0.15 g ai/kg seeds
Method: Seeds of soybean (Glycine max) were treated by being mixed with the desired amount of active compound and spores and water. After drying, 25 seeds were sown into each pot filled with sandy loam.
After the specified period of time the level of activity expressed in % was determined. The level of activity was calculated on the basis of the number of soybean plants which have successfully germinated.

soybean (Glycine max) [4] = test: Shoot weight - soybean (seed treatment); type: in vivo; details: 0.3 g ai/kg seeds
Method: Seeds of soybean (Glycine max) were treated by being mixed with the desired amount of active compound and spores and water. After drying, each seed was sown into a pot filled with loamy sand. The pots were placed in the greenhouse with conditions appropriate for good plant growth.
After the specified period of time the plants were harvested and the shoot weight of the plants was determined. The weight is expressed in % whereupon the weight of the control is set 100%.

Myzus persicae = test: whole plant or invertebrate; details: in Brassica rapa, foliar
[5] = system: Tetranychus urticae (OP-resistant); test: Tetranychus urticae - test (OP-resistant), French bean leaf discs; type: in vivo; details: Tetranychus urticae, foliar; for mortality at 4 g/ha: 4 g ai/ha
Method: as §1, with “cells” for “cells, viruses”
Leaf discs of French beans (Phaseolus vulgaris) infected with all instars of the Two-spotted spider mite (Tetranychus urticae), are sprayed with a preparation of the active ingredient at the desired concentration.
After the specified period of time mortality in % is determined. 100% means that all spider mites have been killed; 0% means that none of the spider mites have been killed.

[6] = read-out: Mortality in % after 2^d
[7] = read-out: Mortality in % after 6^d
[8] = read-out: Mortality in % after 1^d

Q: For `Cc1cc(F)c(-n2nc(C(F)(F)F)nc2N)cc1[S+]([O-])CC(F)(F)F` (racemic) [Compound (I)], which mortality at 0.8 g/ha (Spodoptera frugiperda; 0.8 g ai/ha, read-out: Mortality in % after 6^d) is on record?
A: 0%

Q: What about the mortality at 4 g/ha (Spodoptera frugiperda; [6]) of the same compound?
A: 0%

Q: What about the mortality at 4 g/ha (Spodoptera frugiperda; [7]) of the same compound?
A: 0%

Q: And the mortality at 20 g/ha (Spodoptera frugiperda; [6])?
A: 0%

Q: What about the mortality at 20 g/ha (Spodoptera frugiperda; [7]) of the same compound?
A: 0%

Q: And the mortality at 100 g/ha (Spodoptera frugiperda; [6])?
A: 0%

Q: And the mortality at 100 g/ha (Spodoptera frugiperda; [7])?
A: 0%

Q: What about the mortality at 0.8 ppm ([1]; read-out: Mortality in % after 3^d) of the same compound?
A: 40%

Q: What about the mortality at 0.8 ppm ([1]; read-out: Mortality in % after 5^d) of the same compound?
A: 40%

Q: What about the mortality at 0.8 g/ha [2, 6] of the same compound?
A: 0%

Q: And the mortality at 4 g/ha [2, 6]?
A: 0%

Q: What about the mortality at 20 g/ha [2, 6] of the same compound?
A: 0%

Q: And the mortality at 100 g/ha [2, 6]?
A: 0%

Q: And the mortality at 4 g/ha [2, 7]?
A: 0%

Q: What about the mortality at 20 g/ha [2, 7] of the same compound?
A: 0%

Q: And the mortality at 100 g/ha [2, 7]?
A: 0%

Q: And the “% Germination after 3 days control was set 100%” value (soybean (Glycine max) [3])?
A: 97%

Q: What about the “Shoot weight after 21 days control was set 100%” value (soybean (Glycine max) [4]) of the same compound?
A: 98%

Q: What about the mortality at 4 g/ha (Myzus persicae; [8]) of the same compound?
A: 0%

Q: And the mortality at 20 g/ha (Myzus persicae; [8])?
A: 0%

Q: And the mortality at 100 g/ha (Myzus persicae; [8])?
A: 0%

Q: And the mortality at 4 g/ha (Myzus persicae; [7])?
A: 0%

Q: What about the mortality at 20 g/ha (Myzus persicae; [7]) of the same compound?
A: 0%

Q: What about the mortality at 100 g/ha (Myzus persicae; [7]) of the same compound?
A: 0%

Q: And the mortality at 4 g/ha [5, 6]?
A: 30%

Q: What about the mortality at 4 g/ha [5, 7] of the same compound?
A: 30%

Q: And the mortality at 20 g/ha ([5]; 20 g ai/ha, read-out: Mortality in % after 2^d)?
A: 80%

Reference: patent US20150189882A1, “ACTIVE INGREDIENT COMBINATIONS HAVING INSECTICIDAL AND ACARICIDAL PROPERTIES” (priority 2011, published 2015)
